In ChEMBL document CHEMBL5291721, “A preclinical secondary pharmacology resource illuminates target-adverse drug reaction associations of marketed drugs” (Nat Commun, 2023):

Key:
Progesterone receptor = target: T1, Progesterone receptor (Homo sapiens, UniProt P06401)
T1 sequence (P06401 whole entry): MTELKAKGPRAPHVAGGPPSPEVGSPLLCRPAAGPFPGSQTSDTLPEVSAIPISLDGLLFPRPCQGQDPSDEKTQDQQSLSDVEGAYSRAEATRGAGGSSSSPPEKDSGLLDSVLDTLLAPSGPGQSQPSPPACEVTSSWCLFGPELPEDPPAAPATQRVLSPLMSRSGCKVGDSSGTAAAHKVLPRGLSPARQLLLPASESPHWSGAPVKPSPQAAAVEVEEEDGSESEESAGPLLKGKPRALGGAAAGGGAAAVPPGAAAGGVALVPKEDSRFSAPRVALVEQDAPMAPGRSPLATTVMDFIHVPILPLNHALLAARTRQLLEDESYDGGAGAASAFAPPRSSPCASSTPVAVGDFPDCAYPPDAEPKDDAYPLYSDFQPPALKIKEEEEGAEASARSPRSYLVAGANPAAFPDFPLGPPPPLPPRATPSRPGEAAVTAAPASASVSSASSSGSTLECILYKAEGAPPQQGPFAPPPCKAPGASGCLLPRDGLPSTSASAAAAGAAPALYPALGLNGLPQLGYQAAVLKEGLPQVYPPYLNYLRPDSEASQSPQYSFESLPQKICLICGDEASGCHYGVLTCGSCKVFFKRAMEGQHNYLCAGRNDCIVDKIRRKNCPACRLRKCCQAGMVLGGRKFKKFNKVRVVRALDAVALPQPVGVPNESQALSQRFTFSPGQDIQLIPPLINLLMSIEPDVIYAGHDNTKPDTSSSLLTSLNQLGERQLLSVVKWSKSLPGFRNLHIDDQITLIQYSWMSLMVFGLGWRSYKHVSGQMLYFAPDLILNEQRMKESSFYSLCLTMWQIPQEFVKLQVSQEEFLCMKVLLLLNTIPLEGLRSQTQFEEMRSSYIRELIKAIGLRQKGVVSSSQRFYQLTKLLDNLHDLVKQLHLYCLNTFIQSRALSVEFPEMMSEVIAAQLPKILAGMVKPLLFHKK

[1] = target: T2, Muscarinic acetylcholine receptor M2 (Homo sapiens, UniProt P08172)
T2 sequence (P08172 whole entry): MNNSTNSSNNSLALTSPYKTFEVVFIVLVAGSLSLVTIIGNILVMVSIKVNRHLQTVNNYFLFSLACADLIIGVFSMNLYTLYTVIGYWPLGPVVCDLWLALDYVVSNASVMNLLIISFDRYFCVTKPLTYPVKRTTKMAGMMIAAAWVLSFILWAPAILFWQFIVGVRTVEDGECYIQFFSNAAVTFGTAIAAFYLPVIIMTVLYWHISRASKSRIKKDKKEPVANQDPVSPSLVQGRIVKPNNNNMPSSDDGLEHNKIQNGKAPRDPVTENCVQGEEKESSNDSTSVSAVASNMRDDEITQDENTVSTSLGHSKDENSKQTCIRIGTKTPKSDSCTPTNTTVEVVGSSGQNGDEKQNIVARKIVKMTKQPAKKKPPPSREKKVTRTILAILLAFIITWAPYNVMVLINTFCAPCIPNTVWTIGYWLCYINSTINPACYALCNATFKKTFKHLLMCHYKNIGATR

Androgen receptor = target: T3, Androgen receptor (Homo sapiens, UniProt P10275)
T3 sequence (P10275 whole entry): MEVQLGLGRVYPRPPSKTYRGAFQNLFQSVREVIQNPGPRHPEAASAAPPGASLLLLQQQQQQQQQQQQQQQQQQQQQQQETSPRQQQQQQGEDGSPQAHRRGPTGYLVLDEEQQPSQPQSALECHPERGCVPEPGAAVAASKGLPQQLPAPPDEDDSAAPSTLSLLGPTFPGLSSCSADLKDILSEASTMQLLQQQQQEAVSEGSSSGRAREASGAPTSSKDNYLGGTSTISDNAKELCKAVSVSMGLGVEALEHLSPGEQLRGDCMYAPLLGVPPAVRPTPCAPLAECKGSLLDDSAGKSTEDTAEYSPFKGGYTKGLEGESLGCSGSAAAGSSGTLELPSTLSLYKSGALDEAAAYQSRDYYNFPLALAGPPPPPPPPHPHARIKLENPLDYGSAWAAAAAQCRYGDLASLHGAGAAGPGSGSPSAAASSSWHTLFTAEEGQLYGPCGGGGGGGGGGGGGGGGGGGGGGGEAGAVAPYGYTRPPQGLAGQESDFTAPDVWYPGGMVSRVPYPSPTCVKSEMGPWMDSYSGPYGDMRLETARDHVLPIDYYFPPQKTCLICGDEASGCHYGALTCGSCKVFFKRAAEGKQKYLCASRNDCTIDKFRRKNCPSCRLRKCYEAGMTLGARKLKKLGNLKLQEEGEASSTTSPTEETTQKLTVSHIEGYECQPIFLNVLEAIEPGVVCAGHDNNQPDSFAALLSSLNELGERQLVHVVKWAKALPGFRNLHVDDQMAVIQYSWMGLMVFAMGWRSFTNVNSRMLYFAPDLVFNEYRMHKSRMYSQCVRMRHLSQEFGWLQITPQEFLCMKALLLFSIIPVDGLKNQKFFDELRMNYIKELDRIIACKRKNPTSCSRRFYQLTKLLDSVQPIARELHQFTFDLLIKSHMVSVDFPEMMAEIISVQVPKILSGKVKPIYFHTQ

Cannabinoid receptor 1 = Cannabinoid receptor 1 (Homo sapiens, UniProt P21554)
Cannabinoid receptor 1, sequence (P21554 whole entry): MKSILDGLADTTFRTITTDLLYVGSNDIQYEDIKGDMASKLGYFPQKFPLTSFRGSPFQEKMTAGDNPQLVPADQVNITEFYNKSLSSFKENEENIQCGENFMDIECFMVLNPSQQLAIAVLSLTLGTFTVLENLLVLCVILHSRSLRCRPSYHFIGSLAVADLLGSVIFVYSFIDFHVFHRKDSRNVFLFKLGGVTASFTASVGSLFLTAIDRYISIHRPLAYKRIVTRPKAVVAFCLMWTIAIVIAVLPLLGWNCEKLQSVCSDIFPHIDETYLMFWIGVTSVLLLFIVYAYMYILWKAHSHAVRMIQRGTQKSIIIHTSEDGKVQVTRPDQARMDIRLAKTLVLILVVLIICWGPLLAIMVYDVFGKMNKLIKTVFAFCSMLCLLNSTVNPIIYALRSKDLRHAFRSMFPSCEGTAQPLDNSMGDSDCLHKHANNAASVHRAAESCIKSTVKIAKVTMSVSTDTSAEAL

Endothelin-1 receptor = target: T4, Endothelin-1 receptor (Homo sapiens, UniProt P25101)
T4 sequence (P25101 whole entry): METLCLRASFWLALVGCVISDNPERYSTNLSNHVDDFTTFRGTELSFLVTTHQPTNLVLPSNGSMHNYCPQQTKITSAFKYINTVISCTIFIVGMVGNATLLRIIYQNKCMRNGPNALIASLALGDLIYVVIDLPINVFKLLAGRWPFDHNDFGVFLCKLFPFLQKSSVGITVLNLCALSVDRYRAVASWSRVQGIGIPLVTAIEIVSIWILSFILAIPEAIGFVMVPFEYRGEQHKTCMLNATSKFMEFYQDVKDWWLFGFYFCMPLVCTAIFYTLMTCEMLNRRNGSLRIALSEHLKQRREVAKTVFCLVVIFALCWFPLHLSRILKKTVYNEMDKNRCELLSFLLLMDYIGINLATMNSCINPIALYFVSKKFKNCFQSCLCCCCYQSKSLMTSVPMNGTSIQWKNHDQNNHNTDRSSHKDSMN
Also: assay procedure not described here.

AC50 (Cannabinoid receptor 1) [µM]	AC50 (Endothelin-1 receptor) [µM]	Compound	AC50 (Progesterone receptor) [µM]	AC50 [1] [µM]	AC50 (Androgen receptor) [µM]
		CN(C)c1ccc(C(=C2C=CC(=[N+](C)C)C=C2)c2ccc(N(C)C)cc2)cc1 [GENTIAN VIOLET]	1.67	0.478	> 30
		Nc1ccc(S(N)(=O)=O)cc1 [SULFANILAMIDE]	> 30	> 30	
> 30	> 30	HYDROXOCOBALAMIN			
